The results in this text go back to patent publication US10576151B2, “Ciclopirox for use in modulation of glucose homeostasis” (UNIVERSITY OF SOUTH CAROLINA, priority 2015, dated 2020).

Molecules are shown by their SMILES.

The assay deals with pancreatic islets. As to the kind of experiment: Islet survival under increasing glucose (glucotoxicity), CellTiter 96 AQueous One. The conditions noted are these: for protection from glucotoxicity (islet survival): increasing glucose. The assay is classed as cell-based, mice. On the procedure:
Islet Isolation and Viability Assessment. Pancreatic islets were manually isolated from female C57BI/6 mice by the collagenase digestion method (Sigma-Aldrich; Li et al. 2009) and placed in a 96-well plate. The islets were incubated at 37° C. with 95% air and 5% CO2. Islets were manually picked after dithizone (DTZ; Sigma Chemical Co) staining. Before experiments were performed, the islet cells were incubated with extracellular Krebs-Ringer (KR) solution (Sigma-Aldrich) and with increasing amounts of glucose for 24 h and 48 h. Islet cell viability was assessed using CellTiter 96 AQueous One Solution Cell Proliferation Assay from Promega (Madison, USA). Islets from wt, p21-deficient, p53-deficient and CHOP-deficient mice were exposed to CPX at 20 μM for 24 h under increasing glucose amounts in the culture media, then they were let to recover for 48 h in normal glucose-containing media and their survival was assessed (FIG. 9). The 48 h recovery in normal media was deemed necessary because CPX, by inducing p21 expression would inflict cell cycle arrest in islets masking the effects of glucotoxicity. […] The p21-stimulatory activity of CPX in the islets is also p53-independent. […] Consistently with its pro-apoptotic role during ER stress CHOP ablation conferred resistance of islets to glucotoxicity (FIG. 10 at B).

As for `Cc1cc(C2CCCCC2)n(O)c(=O)c1` [CPX, 6-cyclohexyl-1-hydroxy-4-methylpyridin-2(1H)-one], the “protection from glucotoxicity (islet survival)” value is “not p21-deficient animals” (p21-deficient islets, CPX 20 μM 24 h then 48 h recovery (FIG. 10D)); “A similar trend was also found for p53” (p53-deficient islets, CPX 20 μM 24 h then 48 h recovery (FIG. 10C)); “protected wt” (wt islets, CPX 20 μM 24 h then 48 h recovery (FIG. 10A)). Further, the islet growth entry (wt islets, normal glucose, CPX 20 μM 24 h then 48 h recovery (FIG. 10A)) was “significantly inhibited islet growth”.
